Assays:
Type in all cases: cell-based, human
[1] = system: Fas receptors at the surface of T lymphocytes (of the Jurkat type); experiment: Fas receptors at the surface of Jurkat-type T lymphocytes, fluorescence by flow cytometry
Procedure: Work was carried out on a culture of immortalized human cells consisting of T lymphocytes (of the Jurkat type).
The medium used for culturing the Jurkat-type cells is that marketed by the company Life Technologies under the name “RPMI 1640 Medium”; this medium is described by Moore et al. in the publication “A.M.A.” 199, 519 (1967).
10^6 T lymphocytes of the Jurkat type were suspended in 5 ml of this medium. The culturing was carried out in an incubator at a temperature of 37° C. and in an atmosphere containing 5% CO2.
After incubation for 24 hours, the cells multiplied to reach 2×10^6 cells.
(§1) These cells are recovered by centrifugation, and are washed in an isotonic PBS buffer. A further incubation of these 2×10^6 cells is then carried out in 1 ml of the abovementioned medium at 4° C. and in an atmosphere containing 5% CO2, for 45 minutes in the presence of an anti-Fas receptor, sold under the catalog number 05-201 by Euromedex, diluted to 1/50 in PBS containing 1% of bovine serum albumin (BSA).
At the end of this incubation, the cells are collected and are washed with the isotonic PBS buffer. After washing, a further incubation of the cells is carried out for 45 minutes at 4° C. in the presence of an antibody against hamster immunoglobulins (IgGs) (produced in the goat) which is coupled to fluorescein isothiocyanate, diluted to 1/50 in PBS containing 1% of BSA (marketed by Euromedex, No. AP128F).
Controls were prepared by incubating the T lymphocytes of the Jurkat type only with the second antibody (goat anti-hamster IgG coupled to fluorescein isothio-cyanate).
The increase in the number of Fas receptors at the surface of the cells, under the action of dextran sulfate, is then determined.
Consequently, the fluorescence of the cells (which is proportional to the number of receptors present at the surface) is determined in the absence of dextran sulfate and in the presence of dextran sulfate for a number of solutions at various concentrations. The ratio of the fluorescence in the absence of dextran sulfate to the fluorescence with dextran sulfate is then calculated. In the following text, the result of this calculation is called “ratio”.
Various assays are carried out by introducing into the culture medium, at time t=0 of the experiment, dextran sulfate at the following doses: 0.2 mg/ml, 0.1 mg/ml, 0.02 mg/ml and 0.002 mg/ml; the dextran sulfate is that marketed by the company Sigma.
After various times of incubation with the dextran sulfate, the presence of Fas receptors at the surface of the cells is detected by fluorescence. This fluorescence is induced by the fluorescein isothio-cyanate coupled to the anti-Fas receptor antibodies which are attached to the Fas receptors, and was measured by passing a cell sample containing 10^4 cells through a device such as those which function by flow cytometry, in this case that marketed by the company Beckton Dickinson under the name “FACS Scan Flow Cytometer”. The intensity of the fluorescence, which is expressed in arbitrary units, therefore depends on the number of Fas receptors present at the surface of the cells making up the sample.
For each sample, the curve representing the variation in fluorescence as a function of said number of cells having receptors at their surface is constructed on a graph on which the fluorescence (arbitrary units) is recorded on the X axis and the number of cells (to within one multiplication factor) having receptors at their surface is recorded on the Y axis; this curve reflects a Gaussian-type distribution of the fluorescence.
The various assays carried out make it possible to classify the cell populations as a function of the fluorescence, i.e. as a function of the number of receptors present at the surface of the cells.
The different maximum fluorescence values for each assay, which reflect the different numbers of receptors present at the surface, depend on the active products used in the various assays. […]

[2] = system: TNF alpha receptors (p55 TNF receptor) on Jurkat-type cells; experiment: TNF alpha receptors at the surface of Jurkat-type cells, fluorescence by flow cytometry
Procedure: In this example, the effect of dextran sulfate at a concentration of 0.1 mg/ml on the increase in the number of TNF alpha receptors on Jurkat-type cells was measured.
The medium used for culturing the Jurkat-type cells is that marketed by the company Life Technologies under the name “RPMI 1640 medium”; this medium is described by Moore et al. in the publication “A.M.A.” 199, 519 (1967).
10^6 T lymphocytes are suspended in 5 ml of this medium. The culturing was carried out in an incubator at a temperature of 37° C. and in an atmosphere containing 5% CO2. After incubation for 24 hours, the cells multiplied to reach 2×10^6 cells.
as §1, with “incubation” for “incubation of these 2×10^6 cells”, “anti-human p55 TNF” for “anti-Fas”, “clone MR1-2, ref. MON9062 produced in mice” for “sold under the catalog number 05-201”, “Genzyme SA,” for “Euromedex,”
The cells are recovered and are washed with the isotonic PBS buffer. A further incubation is carried out with an antibody against mouse immunoglobulins (IgGs) (produced in the goat) coupled to fluorescein isothiocyanate, diluted to 1/50 in PBS containing 1% of BSA. […]
The influence of the dextran sulfate is determined by introducing 0.1 mg of dextran sulfate per ml into the culture medium.
The presence of TNF alpha receptors at the surface of the cells was measured by fluorescence as in the previous examples.
In FIG. 17, in which the Y-axis represents the number (to within one multiplication factor) of TNF alpha receptors at the surface of the cells, and in which the X-axis represents the intensity of fluorescence (arbitrary units), the Gaussian distribution of the fluorescence for the control sample (curve T1) and for the sample which was incubated in the presence of 0.1 mg/ml of dextran sulfate (curve C17) is represented in the form of a curve.

[3] = system: Fas receptors at the surface of Hep-G2 liver cells; experiment: Fas receptors at the surface of Hep-G2 liver cells, fluorescence by flow cytometry; conditions: for Fluorescence Ratio: vs control
Procedure: Work was carried out on a culture of liver cells named Hep-G2 (marketed by ECACC (European collection of human genetic cell lines)).
The same procedure is carried out as in example 1, replacing the T lymphocytes of the Jurkat type with Hep-G2 liver cells.
The presence of Fas receptors at the surface of the cells was measured by fluorescence, as in example 1, and the results obtained are expressed as in example 1, in the form of FIGS. 9 to 12. […]
For this, the same procedure as in example 1 was carried out.

[4] = Hep-G2, 0.02 mg/ml dextran sulfate (0.2 mg/ml given in source), 6 h (curve C13)
[5] = Hep-G2, 0.02 mg/ml dextran sulfate (0.2 mg/ml given in source), 24 h (curve C14)
[6] = Hep-G2, 0.02 mg/ml dextran sulfate (0.2 mg/ml given in source), 48 h (curve C15)
[7] = Hep-G2, 0.02 mg/ml dextran sulfate (0.2 mg/ml given in source), 72 h (curve C16)
[8] = Hep-G2, dextran sulfate 0.002 mg/ml (curve C12)
[9] = Hep-G2, dextran sulfate 0.02 mg/ml (curve C11)
[10] = Hep-G2, dextran sulfate 0.1 mg/ml (curve C10)
[11] = Hep-G2, dextran sulfate 0.2 mg/ml (curve C9)

dextran sulfate
incubation time of the maximum of the increase in the number of Fas receptors at the cell surface ([1]; 0.02 mg/ml dextran sulfate): 48 h | Fluorescence Value measured (peak of curve) ([1]; 0.02 mg/ml dextran sulfate, 6 h (curve C41)): 100 arbitrary units | Fluorescence Ratio ([1]; 0.02 mg/ml dextran sulfate, 6 h (curve C41), vs control): 2 | Fluorescence Value measured (peak of curve) ([1]; 0.02 mg/ml dextran sulfate, 24 h (curve C42)): 120 arbitrary units | Fluorescence Ratio ([1]; 0.02 mg/ml dextran sulfate, 24 h (curve C42), vs control): 2.4 | Fluorescence Value measured (peak of curve) ([1]; 0.02 mg/ml dextran sulfate, 48 h (curve C43)): 150 arbitrary units | Fluorescence Ratio ([1]; 0.02 mg/ml dextran sulfate, 48 h (curve C43), vs control): 3 | Fluorescence Value measured (peak of curve) ([1]; 0.02 mg/ml dextran sulfate, 72 h (curve C44)): 80 arbitrary units | Fluorescence Ratio ([1]; 0.02 mg/ml dextran sulfate, 72 h (curve C44), vs control): 1.6 | minimum concentration for increase in the number of Fas receptors at the cell surface ([1]; at greater dilution effect too diminished, higher concentration does not enhance): 0.02 mg/mL | Fluorescence Value measured (peak of curve) ([1]; dextran sulfate 0.002 mg/ml (curve C5)): 90 arbitrary units | Fluorescence Ratio ([1]; dextran sulfate 0.002 mg/ml (curve C5), vs control): 1.13 | Fluorescence Value measured (peak of curve) ([1]; dextran sulfate 0.02 mg/ml (curve C4)): 200 arbitrary units | Fluorescence Ratio ([1]; dextran sulfate 0.02 mg/ml (curve C4), vs control): 2.50 | Fluorescence Value measured (peak of curve) ([1]; dextran sulfate 0.1 mg/ml (curve C3)): 250 arbitrary units | Fluorescence Ratio ([1]; dextran sulfate 0.1 mg/ml (curve C3), vs control): 3.13 | Fluorescence Value measured (peak of curve) ([1]; dextran sulfate 0.2 mg/ml (curve C2)): 250 arbitrary units | Fluorescence Ratio ([1]; dextran sulfate 0.2 mg/ml (curve C2), vs control without dextran sulfate): 3.13 | Fluorescence Value measured (peak of curve) ([2]; TNF alpha receptors, dextran sulfate 0.1 mg/ml (curve C17)): 200 arbitrary units | Fluorescence Ratio ([2]; TNF alpha receptors, dextran sulfate 0.1 mg/ml, vs control): 1.14 | increase in the number of TNF alpha receptors at the surface ([2]; dextran sulfate 0.1 mg/ml, called weak): 10% | minimum concentration for increase in the number of Fas receptors at the cell surface ([3]; Hep-G2): 0.02 mg/mL | optimum concentration for increase in the number of Fas receptors at the cell surface ([3]; Hep-G2): 0.1 mg/mL | Fluorescence Value measured (peak of curve) [3, 4]: 40 arbitrary units | Fluorescence Ratio [3, 4]: 1.6 | Fluorescence Value measured (peak of curve) [3, 5]: 50 arbitrary units | Fluorescence Ratio [3, 5]: 2 | Fluorescence Value measured (peak of curve) [3, 6]: 70 arbitrary units | Fluorescence Ratio [3, 6]: 2.8 | Fluorescence Value measured (peak of curve) [3, 7]: 50 arbitrary units | Fluorescence Ratio [3, 7]: 2 | incubation time of the maximum of the increase in the number of Fas receptors at the cell surface ([3]; Hep-G2, dextran sulfate): 48 h | Fluorescence Value measured (peak of curve) [3, 8]: 60 arbitrary units | Fluorescence Ratio [3, 8]: 1 | Fluorescence Value measured (peak of curve) [3, 9]: 120 arbitrary units | Fluorescence Ratio [3, 9]: 2 | Fluorescence Value measured (peak of curve) [3, 10]: 140 arbitrary units | Fluorescence Ratio [3, 10]: 2.3 | Fluorescence Value measured (peak of curve) [3, 11]: 160 arbitrary units | Fluorescence Ratio [3, 11]: 2.7

iota-carrageenan [Ic]
incubation time of the maximum of the increase in the number of Fas receptors at the cell surface ([1]; Ic 0.2 mg/ml): 24 h | Fluorescence Value measured (peak of curve) ([1]; Ic 0.2 mg/ml, 6 h): 80 arbitrary units | Fluorescence Ratio ([1]; Ic 0.2 mg/ml, 6 h, vs control): 1.3 | Fluorescence Value measured (peak of curve) ([1]; Ic 0.2 mg/ml, 24 h): 180 arbitrary units | Fluorescence Ratio ([1]; Ic 0.2 mg/ml, 24 h, vs control): 2.7 | Fluorescence Value measured (peak of curve) ([1]; Ic 0.2 mg/ml, 48 h): 125 arbitrary units | Fluorescence Ratio ([1]; Ic 0.2 mg/ml, 48 h, vs control): 2.1 | Fluorescence Value measured (peak of curve) ([1]; Ic 0.2 mg/ml, 72 h): 100 arbitrary units | Fluorescence Ratio ([1]; Ic 0.2 mg/ml, 72 h, vs control): 1.7

Reference: patent US20030166609A1, “Medicine containing polysacccharide substances for activating apoptosis” (priority 2000, published 2003)
